Tests used:
[1] = test system: pancreatic exocrine function; assay: 13C-dipeptide breath test in normal rats (Δ13C in exhaled CO2 after oral administration); format: in vivo, rat; conditions: for Δ^13C(‰) peak value / Peak time: oral 35 μmol/kg (5 ml/kg); for Δ^13C(‰) peak value: exhaled CO2; for Δ^13C(‰) peak value compared with the peak value of Bz-Ala-(^13C-Ala)-ONa: comparison in words; for Δ^13C(‰) value at 5 min after the administration / Δ^13C(‰) value at 10 min after the administration / Δ^13C(‰) value at 15 min after the administration / Δ^13C(‰) value at 20 min after the administration: normal rats, mean±SD
Protocol: (§1) Overnight-fasted rats (male, Wistar, 8-week old) in the awake state were individually fixed in a rat holder of a microwave irradiation apparatus. The breath was collected at a rate of about 100 to 300 ml/min using a stroke pump (Variable Stroke Pump VS-500; Shibata Kagaku Kogyo), and the CO2 concentration therein was maintained at about 3%. A Perma Pure drier (MD-050-12P; Perma Pure INC.) was set between the rat holder and the stroke pump to remove water vapor from the breath. When the CO2 concentration was stabilized, the rat was temporarily released from the rat holder. A ^13C-labeled dipeptide or a sodium salt thereof each dissolved in distilled water was administered to the stomach of the rat using an oral probe [dose: 35 μmol/kg (5 ml/kg)]. The breath was sampled with a syringe every 5 min until up to 20 min. A 15 ml sample was transferred from the syringe into a vacuum vial (10 ml), sealed and subjected to automated analysis by GC-MS (Breath MAT) [FinniganMAT]. Δ^13C(‰) was calculated from δ^13C values which are ^13C values of a sample (i.e. differences from the standard substance PDB) using the following formula. Δ^13C(‰)=(δ^13C)tmin−((δ^13C)0 min <Breath MAT Measuring Conditions>
Apparatus: Breath MAT plus (Finningan)
Using Ac-Met-(^13C-Ala)-ONa, Z-Met-(^13C-Ala)-ONa, Boc-Met-(^13C-Ala)-ONa or Boc-Phe-(^13C-Ala)-ONa [dose: 35 μmol/kg (5 ml/kg)], ^13C-breath tests were carried out in the same manner as in Example 12. The resultant Δ^13C(‰) peak values were compared with the Δ^13C(‰) peak value in the Bz-Ala-(^13C-Ala)-ONa breath test.
(§2) As in Example 12, Bz-Phe-(^13C-Ala)-ONa [dose: 12.6 mg/kg (35 μmol/kg)], Bz-Gln-(^13C-Ala)-ONa [dose: 12.0 mg/kg (35 μmol/kg)], Bz-Val-(^13C-Ala)-ONa [dose: 11.0 mg/kg (35 μmol/kg)], Bz-Tyr-(^13C-Ala)-ONa [dose: 13.2 mg/kg (35 μmol/kg)], Bz-Met-(^13C-Ala)-ONa [dose: 12.1 mg/kg (35 μmol/kg)], Bz-Ser-(^13C-Ala)-ONa [dose: 10.6 mg/kg (35 μmol/kg)], Bz-Thr-(^13C-Ala)-ONa [dose: 11.0 mg/kg (35 μmol/kg)] or Boc-Phe-(^13C-Ala)-ONa [dose: 8.84 mg/kg (24.6 μmol/kg)] was administered orally to normal rats and chronic pancreatitis rats. Then, the time course of the degree of increase of the ^13C concentration in exhaled CO2 (Δ^13C(‰)) was measured.

[2] = test system: pancreatic exocrine function; assay: 13C-dipeptide breath test in chronic pancreatitis rats (oleic acid injected into pancreatic duct); format: in vivo, rat; conditions: mean±SD
Protocol: as §1
Chronic pancreatitis rats were created according to the method of Mundlos et al., Pancreas 1:29 (1986). Oleic acid was injected into the pancreatic duct of 5-week old Wistar male rats. After breeding for 3 weeks, they were used in ^13C-dipeptide breath tests.
as §2

[3] = Table 1, overnight-fasted Wistar rats
[4] = Table 1, overnight-fasted Wistar rats, peak in time course of Δ13C(‰) up to 20 min

C[C@H](NC(=O)[C@H](CCCNC(=N)N)NC(=O)c1ccccc1)[13C](=O)O [Bz-Arg-(^13C-Ala), reference compound]
Δ^13C(‰) peak value [1, 3]: 42.83 ‰ | Peak time [1, 4]: 15 min

C[C@H](NC(=O)[C@H](CCCCN)NC(=O)c1ccccc1)[13C](=O)O [Bz-Lys-(^13C-Ala), reference compound]
Δ^13C(‰) peak value [1, 3]: 38.57 ‰ | Peak time [1, 4]: 15 min

CSCC[C@H](NC(C)=O)C(=O)N[C@@H](C)[13C](=O)[O-].[Na+] [Na salt of Ac-Met-(^13C-Ala), acetyl-L-methionyl-^13C-L-alanine]
Peak time ([1]; Table 2, rats): 15 min | Δ^13C(‰) peak value ([1]; Table 2, rats): 63.15 ‰ | Δ^13C(‰) peak value compared with the peak value of Bz-Ala-(^13C-Ala)-ONa ([1]; rats, oral 35 μmol/kg): higher

CSCC[C@H](NC(=O)OC(C)(C)C)C(=O)N[C@@H](C)[13C](=O)[O-].[Na+] [Na salt of Boc-Met-(^13C-Ala), t-butyloxycarbonyl-L-methionyl-^13C-L-alanine]
Peak time ([1]; Table 2, rats): 15 min | Δ^13C(‰) peak value ([1]; Table 2, rats): 55.50 ‰ | Δ^13C(‰) peak value compared with the peak value of Bz-Ala-(^13C-Ala)-ONa ([1]; rats, oral 35 μmol/kg): higher

C[C@H](NC(=O)[C@H](Cc1ccccc1)NC(=O)OC(C)(C)C)[13C](=O)[O-].[Na+] [Na salt of Boc-Phe-(^13C-Ala), t-butyloxycarbonyl-L-phenylalanyl-^13C-L-alanine]
Peak time ([1]; Table 2, rats): 20 min | Δ^13C(‰) peak value ([1]; Table 2, rats): 46.06 ‰ | Δ^13C(‰) value at 5 min after the administration ([1]; oral 8.84 mg/kg (24.6 μmol/kg)): 5.02±3.79 ‰ | Δ^13C(‰) value at 10 min after the administration ([1]; oral 8.84 mg/kg (24.6 μmol/kg)): 24.36±7.52 ‰ | Δ^13C(‰) value at 15 min after the administration ([1]; oral 8.84 mg/kg (24.6 μmol/kg)): 28.13±4.43 ‰ | Δ^13C(‰) value at 20 min after the administration ([1]; oral 8.84 mg/kg (24.6 μmol/kg)): 25.09±2.00 ‰ | Δ^13C(‰) peak value compared with the peak value of Bz-Ala-(^13C-Ala)-ONa ([1]; rats, oral 35 μmol/kg): higher | Δ^13C(‰) value at 5 min after the administration ([2]; oral 8.84 mg/kg (24.6 μmol/kg)): 0.74±0.54 ‰ | Δ^13C(‰) value at 10 min after the administration ([2]; oral 8.84 mg/kg (24.6 μmol/kg)): 3.43±1.46 ‰ | Δ^13C(‰) value at 15 min after the administration ([2]; oral 8.84 mg/kg (24.6 μmol/kg)): 6.36±2.67 ‰ | Δ^13C(‰) value at 20 min after the administration ([2]; oral 8.84 mg/kg (24.6 μmol/kg)): 10.16±3.95 ‰

C[C@H](NC(=O)c1ccccc1)C(=O)N[C@@H](C)[13C](=O)[O-].[Na+] [Na salt of Bz-Ala-(^13C-Ala), reference compound]
Δ^13C(‰) peak value [1, 3]: 45.88 ‰ | Peak time [1, 4]: 10 min | Peak time ([1]; Table 2, rats): 10 min | Δ^13C(‰) peak value ([1]; Table 2, rats): 45.88 ‰

C[C@H](NC(=O)[C@H](CC(N)=O)NC(=O)c1ccccc1)[13C](=O)[O-].[Na+] [Na salt of Bz-Asn-(^13C-Ala), reference compound]
Δ^13C(‰) peak value [1, 3]: 41.74 ‰ | Peak time [1, 4]: 15 min

C[C@H](NC(=O)[C@H](CC(=O)O)NC(=O)c1ccccc1)[13C](=O)[O-].[Na+] [Na salt of Bz-Asp-(^13C-Ala), reference compound]
Δ^13C(‰) peak value [1, 3]: 11.47 ‰ | Peak time [1, 4]: 20 min

C[C@H](NC(=O)[C@H](CS)NC(=O)c1ccccc1)[13C](=O)[O-].[Na+] [Na salt of Bz-Cys-(^13C-Ala), reference compound]
Δ^13C(‰) peak value [1, 3]: 31.52 ‰ | Peak time [1, 4]: 10 min

C[C@H](NC(=O)[C@H](CCC(N)=O)NC(=O)c1ccccc1)[13C](=O)[O-].[Na+] [Na salt of Bz-Gln-(^13C-Ala), N-benzoyl-L-glutaminyl-^13C-L-alanine]
Δ^13C(‰) peak value [1, 3]: 54.56 ‰ | Peak time [1, 4]: 10 min | Δ^13C(‰) value at 5 min after the administration ([1]; oral 35 μmol/kg): 13.86±4.98 ‰ | Δ^13C(‰) value at 10 min after the administration ([1]; oral 35 μmol/kg): 54.56±14.10 ‰ | Δ^13C(‰) value at 15 min after the administration ([1]; oral 35 μmol/kg): 51.27±3.21 ‰ | Δ^13C(‰) peak value compared with the peak value of Bz-Ala-(^13C-Ala)-ONa ([1]; rats, oral 35 μmol/kg): higher | Δ^13C(‰) value at 5 min after the administration ([2]; oral 35 μmol/kg): 3.41±3.44 ‰ | Δ^13C(‰) value at 10 min after the administration ([2]; oral 35 μmol/kg): 15.32±13.04 ‰ | Δ^13C(‰) value at 15 min after the administration ([2]; oral 35 μmol/kg): 28.06±19.01 ‰

C[C@H](NC(=O)CNC(=O)c1ccccc1)[13C](=O)[O-].[Na+] [Na salt of Bz-Gly-(^13C-Ala), reference compound]
Δ^13C(‰) peak value [1, 3]: 32.14 ‰ | Peak time [1, 4]: 20 min

C[C@H](NC(=O)[C@H](Cc1cnc[nH]1)NC(=O)c1ccccc1)[13C](=O)[O-].[Na+] [Na salt of Bz-His-(^13C-Ala), reference compound]
Δ^13C(‰) peak value [1, 3]: 36.17 ‰ | Peak time [1, 4]: 20 min

CC[C@H](C)[C@H](NC(=O)c1ccccc1)C(=O)N[C@@H](C)[13C](=O)[O-].[Na+] [Na salt of Bz-Ile-(^13C-Ala), reference compound]
Δ^13C(‰) peak value [1, 3]: 39.82 ‰ | Peak time [1, 4]: 20 min

CC(C)C[C@H](NC(=O)c1ccccc1)C(=O)N[C@@H](C)[13C](=O)[O-].[Na+] [Na salt of Bz-Leu-(^13C-Ala), reference compound]
Δ^13C(‰) peak value [1, 3]: 42.77 ‰ | Peak time [1, 4]: 15 min

CSCC[C@H](NC(=O)c1ccccc1)C(=O)N[C@@H](C)[13C](=O)[O-].[Na+] [Na salt of Bz-Met-(^13C-Ala), N-benzoyl-L-methionyl-^13C-L-alanine]
Δ^13C(‰) peak value [1, 3]: 48.88 ‰ | Peak time [1, 4]: 10 min | Δ^13C(‰) value at 5 min after the administration ([1]; oral 35 μmol/kg): 19.76±10.16 ‰ | Δ^13C(‰) value at 10 min after the administration ([1]; oral 35 μmol/kg): 48.88±17.45 ‰ | Δ^13C(‰) value at 15 min after the administration ([1]; oral 35 μmol/kg): 45.53±8.00 ‰ | Δ^13C(‰) value at 20 min after the administration ([1]; oral 35 μmol/kg): 38.58±3.79 ‰ | Δ^13C(‰) peak value compared with the peak value of Bz-Ala-(^13C-Ala)-ONa ([1]; rats, oral 35 μmol/kg): higher | Δ^13C(‰) value at 5 min after the administration ([2]; oral 35 μmol/kg): 1.52±1.47 ‰ | Δ^13C(‰) value at 10 min after the administration ([2]; oral 35 μmol/kg): 7.69±5.15 ‰ | Δ^13C(‰) value at 15 min after the administration ([2]; oral 35 μmol/kg): 14.59±8.50 ‰ | Δ^13C(‰) value at 20 min after the administration ([2]; oral 35 μmol/kg): 20.25±9.43 ‰

C[C@H](NC(=O)[C@H](Cc1ccccc1)NC(=O)c1ccccc1)[13C](=O)[O-].[Na+] [Na salt of Bz-Phe-(^13C-Ala), N-benzoyl-L-phenylalanyl-^13C-L-alanine]
Δ^13C(‰) peak value [1, 3]: 55.62 ‰ | Peak time [1, 4]: 10 min | Δ^13C(‰) value at 5 min after the administration ([1]; oral 35 μmol/kg): 29.32±13.57 ‰ | Δ^13C(‰) value at 10 min after the administration ([1]; oral 35 μmol/kg): 55.62±6.62 ‰ | Δ^13C(‰) value at 15 min after the administration ([1]; oral 35 μmol/kg): 45.44±3.44 ‰ | Δ^13C(‰) peak value compared with the peak value of Bz-Ala-(^13C-Ala)-ONa ([1]; rats, oral 35 μmol/kg): higher | Δ^13C(‰) value at 5 min after the administration ([2]; oral 35 μmol/kg): 4.17±3.95 ‰ | Δ^13C(‰) value at 10 min after the administration ([2]; oral 35 μmol/kg): 14.56±10.79 ‰ | Δ^13C(‰) value at 15 min after the administration ([2]; oral 35 μmol/kg): 22.80±12.36 ‰

C[C@H](NC(=O)[C@H](CO)NC(=O)c1ccccc1)[13C](=O)[O-].[Na+] [Na salt of Bz-Ser-(^13C-Ala), N-benzoyl-L-seryl-^13C-L-alanine]
Δ^13C(‰) peak value [1, 3]: 47.48 ‰ | Peak time [1, 4]: 15 min | Δ^13C(‰) value at 5 min after the administration ([1]; oral 35 μmol/kg): 8.29±4.94 ‰ | Δ^13C(‰) value at 10 min after the administration ([1]; oral 35 μmol/kg): 35.91±11.85 ‰ | Δ^13C(‰) value at 15 min after the administration ([1]; oral 35 μmol/kg): 47.48±12.89 ‰ | Δ^13C(‰) value at 20 min after the administration ([1]; oral 35 μmol/kg): 43.04±5.30 ‰ | Δ^13C(‰) peak value compared with the peak value of Bz-Ala-(^13C-Ala)-ONa ([1]; rats, oral 35 μmol/kg): higher | Δ^13C(‰) value at 5 min after the administration ([2]; oral 35 μmol/kg): 1.07±1.43 ‰ | Δ^13C(‰) value at 10 min after the administration ([2]; oral 35 μmol/kg): 5.94±8.13 ‰ | Δ^13C(‰) value at 15 min after the administration ([2]; oral 35 μmol/kg): 10.34±11.99 ‰ | Δ^13C(‰) value at 20 min after the administration ([2]; oral 35 μmol/kg): 12.80±11.97 ‰

C[C@H](NC(=O)[C@H](Cc1c[nH]c2ccccc12)NC(=O)c1ccccc1)[13C](=O)[O-].[Na+] [Na salt of Bz-Trp-(^13C-Ala), reference compound]
Δ^13C(‰) peak value [1, 3]: 39.76 ‰ | Peak time [1, 4]: 15 min

CSCC[C@H](NC(=O)OCc1ccccc1)C(=O)N[C@@H](C)[13C](=O)[O-].[Na+] [Na salt of Z-Met-(^13C-Ala), benzyloxycarbonyl-L-methionyl-^13C-L-alanine]
Peak time ([1]; Table 2, rats): 15 min | Δ^13C(‰) peak value ([1]; Table 2, rats): 48.71 ‰ | Δ^13C(‰) peak value compared with the peak value of Bz-Ala-(^13C-Ala)-ONa ([1]; rats, oral 35 μmol/kg): higher
